Test: xn = mol fraction of the nth substance listed

CC(C)=O [acetone] + O=C=O
Conditions	mass density [kg/m3]
318.15 K, 8180 kPa, Fluid (supercritical or subcritical phases), x2 = 0.902	715
318.15 K, 8410 kPa, Fluid (supercritical or subcritical phases), x2 = 0.902	722
318.15 K, 8570 kPa, Fluid (supercritical or subcritical phases), x2 = 0.902	726
318.15 K, 8810 kPa, Fluid (supercritical or subcritical phases), x2 = 0.902	732
318.15 K, 8960 kPa, Fluid (supercritical or subcritical phases), x2 = 0.902	735
318.15 K, 9180 kPa, Fluid (supercritical or subcritical phases), x2 = 0.902	738
318.15 K, 9410 kPa, Fluid (supercritical or subcritical phases), x2 = 0.902	744
318.15 K, 9570 kPa, Fluid (supercritical or subcritical phases), x2 = 0.902	746
318.15 K, 9780 kPa, Fluid (supercritical or subcritical phases), x2 = 0.902	751
318.15 K, 9900 kPa, Fluid (supercritical or subcritical phases), x2 = 0.902	754
318.15 K, 10070 kPa, Fluid (supercritical or subcritical phases), x2 = 0.902	756
318.15 K, 10330 kPa, Fluid (supercritical or subcritical phases), x2 = 0.902	757
318.15 K, 10540 kPa, Fluid (supercritical or subcritical phases), x2 = 0.902	763
318.15 K, 10770 kPa, Fluid (supercritical or subcritical phases), x2 = 0.902	766
318.15 K, 10970 kPa, Fluid (supercritical or subcritical phases), x2 = 0.902	770
318.15 K, 11190 kPa, Fluid (supercritical or subcritical phases), x2 = 0.902	774
318.15 K, 11500 kPa, Fluid (supercritical or subcritical phases), x2 = 0.902	776
318.15 K, 11830 kPa, Fluid (supercritical or subcritical phases), x2 = 0.902	781
318.15 K, 12140 kPa, Fluid (supercritical or subcritical phases), x2 = 0.902	785
318.15 K, 12450 kPa, Fluid (supercritical or subcritical phases), x2 = 0.902	789
318.15 K, 12710 kPa, Fluid (supercritical or subcritical phases), x2 = 0.902	793
318.15 K, 13050 kPa, Fluid (supercritical or subcritical phases), x2 = 0.902	795
318.15 K, 13370 kPa, Fluid (supercritical or subcritical phases), x2 = 0.902	798
318.15 K, 13700 kPa, Fluid (supercritical or subcritical phases), x2 = 0.902	803
318.15 K, 14060 kPa, Fluid (supercritical or subcritical phases), x2 = 0.902	807
318.15 K, 14370 kPa, Fluid (supercritical or subcritical phases), x2 = 0.902	809
318.15 K, 14610 kPa, Fluid (supercritical or subcritical phases), x2 = 0.902	812
318.15 K, 14870 kPa, Fluid (supercritical or subcritical phases), x2 = 0.902	815
318.15 K, Liquid, Other PVT measurement, x2 = 0.902	709
323.15 K, 1690 kPa, Fluid (supercritical or subcritical phases), x2 = 0.186	764
323.15 K, 2050 kPa, Fluid (supercritical or subcritical phases), x2 = 0.186	767
323.15 K, 2920 kPa, Fluid (supercritical or subcritical phases), x2 = 0.186	770
323.15 K, 4190 kPa, Fluid (supercritical or subcritical phases), x2 = 0.383	789
323.15 K, 4500 kPa, Fluid (supercritical or subcritical phases), x2 = 0.186	772
323.15 K, 5090 kPa, Fluid (supercritical or subcritical phases), x2 = 0.576	798
323.15 K, 5870 kPa, Fluid (supercritical or subcritical phases), x2 = 0.383	795
323.15 K, 6050 kPa, Fluid (supercritical or subcritical phases), x2 = 0.186	775
323.15 K, 6120 kPa, Fluid (supercritical or subcritical phases), x2 = 0.576	802
323.15 K, 7330 kPa, Fluid (supercritical or subcritical phases), x2 = 0.186	777
323.15 K, 7430 kPa, Fluid (supercritical or subcritical phases), x2 = 0.576	810
323.15 K, 7470 kPa, Fluid (supercritical or subcritical phases), x2 = 0.772	783
323.15 K, 7570 kPa, Fluid (supercritical or subcritical phases), x2 = 0.811	760
323.15 K, 7780 kPa, Fluid (supercritical or subcritical phases), x2 = 0.811	764
323.15 K, 7880 kPa, Fluid (supercritical or subcritical phases), x2 = 0.383	800
323.15 K, 7930 kPa, Fluid (supercritical or subcritical phases), x2 = 0.772	787
323.15 K, 7930 kPa, Fluid (supercritical or subcritical phases), x2 = 0.811	769
323.15 K, 8250 kPa, Fluid (supercritical or subcritical phases), x2 = 0.882	703
323.15 K, 8280 kPa, Fluid (supercritical or subcritical phases), x2 = 0.811	774
323.15 K, 8420 kPa, Fluid (supercritical or subcritical phases), x2 = 0.772	792
323.15 K, 8500 kPa, Fluid (supercritical or subcritical phases), x2 = 0.882	712
323.15 K, 8620 kPa, Fluid (supercritical or subcritical phases), x2 = 0.811	778
323.15 K, 8630 kPa, Fluid (supercritical or subcritical phases), x2 = 0.882	716
323.15 K, 8710 kPa, Fluid (supercritical or subcritical phases), x2 = 0.186	781
323.15 K, 8750 kPa, Fluid (supercritical or subcritical phases), x2 = 0.902	678
323.15 K, 8790 kPa, Fluid (supercritical or subcritical phases), x2 = 0.882	719
323.15 K, 8860 kPa, Fluid (supercritical or subcritical phases), x2 = 0.933	586
323.15 K, 8880 kPa, Fluid (supercritical or subcritical phases), x2 = 0.933	590
323.15 K, 8920 kPa, Fluid (supercritical or subcritical phases), x2 = 0.902	683
323.15 K, 8930 kPa, Fluid (supercritical or subcritical phases), x2 = 0.882	721
323.15 K, 8930 kPa, Fluid (supercritical or subcritical phases), x2 = 0.933	594
323.15 K, 8960 kPa, Fluid (supercritical or subcritical phases), x2 = 0.576	813
323.15 K, 8970 kPa, Fluid (supercritical or subcritical phases), x2 = 0.772	796
323.15 K, 8980 kPa, Fluid (supercritical or subcritical phases), x2 = 0.952	495
323.15 K, 8990 kPa, Fluid (supercritical or subcritical phases), x2 = 0.933	601
323.15 K, 9000 kPa, Fluid (supercritical or subcritical phases), x2 = 0.948	540
323.15 K, 9000 kPa, Fluid (supercritical or subcritical phases), x2 = 0.952	497
323.15 K, 9020 kPa, Fluid (supercritical or subcritical phases), x2 = 0.902	687
323.15 K, 9030 kPa, Fluid (supercritical or subcritical phases), x2 = 0.952	502
323.15 K, 9040 kPa, Fluid (supercritical or subcritical phases), x2 = 0.933	606
323.15 K, 9060 kPa, Fluid (supercritical or subcritical phases), x2 = 0.948	549
323.15 K, 9060 kPa, Fluid (supercritical or subcritical phases), x2 = 0.952	505
323.15 K, 9090 kPa, Fluid (supercritical or subcritical phases), x2 = 0.952	510
323.15 K, 9100 kPa, Fluid (supercritical or subcritical phases), x2 = 0.933	613
323.15 K, 9110 kPa, Fluid (supercritical or subcritical phases), x2 = 0.882	728
323.15 K, 9120 kPa, Fluid (supercritical or subcritical phases), x2 = 0.948	559
323.15 K, 9120 kPa, Fluid (supercritical or subcritical phases), x2 = 0.952	514
323.15 K, 9140 kPa, Fluid (supercritical or subcritical phases), x2 = 0.952	519
323.15 K, 9160 kPa, Fluid (supercritical or subcritical phases), x2 = 0.902	690
323.15 K, 9170 kPa, Fluid (supercritical or subcritical phases), x2 = 0.952	523
323.15 K, 9180 kPa, Fluid (supercritical or subcritical phases), x2 = 0.933	618
323.15 K, 9190 kPa, Fluid (supercritical or subcritical phases), x2 = 0.952	527
323.15 K, 9200 kPa, Fluid (supercritical or subcritical phases), x2 = 0.948	568
323.15 K, 9220 kPa, Fluid (supercritical or subcritical phases), x2 = 0.952	531
323.15 K, 9240 kPa, Fluid (supercritical or subcritical phases), x2 = 0.933	624
323.15 K, 9250 kPa, Fluid (supercritical or subcritical phases), x2 = 0.952	537
323.15 K, 9270 kPa, Fluid (supercritical or subcritical phases), x2 = 0.902	694
323.15 K, 9290 kPa, Fluid (supercritical or subcritical phases), x2 = 0.952	541
323.15 K, 9300 kPa, Fluid (supercritical or subcritical phases), x2 = 0.948	579
323.15 K, 9320 kPa, Fluid (supercritical or subcritical phases), x2 = 0.952	546
323.15 K, 9330 kPa, Fluid (supercritical or subcritical phases), x2 = 0.933	630
323.15 K, 9350 kPa, Fluid (supercritical or subcritical phases), x2 = 0.811	787
323.15 K, 9350 kPa, Fluid (supercritical or subcritical phases), x2 = 0.952	550
323.15 K, 9380 kPa, Fluid (supercritical or subcritical phases), x2 = 0.882	732
323.15 K, 9380 kPa, Fluid (supercritical or subcritical phases), x2 = 0.952	556
323.15 K, 9400 kPa, Fluid (supercritical or subcritical phases), x2 = 0.902	699
323.15 K, 9410 kPa, Fluid (supercritical or subcritical phases), x2 = 0.933	637
323.15 K, 9410 kPa, Fluid (supercritical or subcritical phases), x2 = 0.948	590
323.15 K, 9430 kPa, Fluid (supercritical or subcritical phases), x2 = 0.952	561
323.15 K, 9450 kPa, Fluid (supercritical or subcritical phases), x2 = 0.772	798
323.15 K, 9480 kPa, Fluid (supercritical or subcritical phases), x2 = 0.952	567
323.15 K, 9520 kPa, Fluid (supercritical or subcritical phases), x2 = 0.902	702
323.15 K, 9520 kPa, Fluid (supercritical or subcritical phases), x2 = 0.933	642
323.15 K, 9520 kPa, Fluid (supercritical or subcritical phases), x2 = 0.952	571
323.15 K, 9540 kPa, Fluid (supercritical or subcritical phases), x2 = 0.948	602
323.15 K, 9560 kPa, Fluid (supercritical or subcritical phases), x2 = 0.383	803
323.15 K, 9560 kPa, Fluid (supercritical or subcritical phases), x2 = 0.952	578
323.15 K, 9620 kPa, Fluid (supercritical or subcritical phases), x2 = 0.952	582
323.15 K, 9630 kPa, Fluid (supercritical or subcritical phases), x2 = 0.933	649
323.15 K, 9650 kPa, Fluid (supercritical or subcritical phases), x2 = 0.882	736
323.15 K, 9660 kPa, Fluid (supercritical or subcritical phases), x2 = 0.948	613

Reference: the NIST ThermoML archive (doi:10.1021/je034087q)
